Like-named read-outs stand apart in the source and are kept apart here. Square brackets hold non-standard residues; d marks the D form. Ends that are not written are not given here. sY = N[C@@H](Cc1ccc(OS(=O)(=O)O)cc1)C(=O)O

The source of these data is patent US20080124741A1, “Canine Cholecystokinin 1 Receptor Materials And Their Use” (priority 2004, published 2008).

One experiment deals with T1, Canine CCK1: Variant #1 (Canis lupus familiaris, UniProt Q5D0K2, G258S/L413V/V400A).
T1 construct: plasmid DNAs containing the respective variant canine CCK1 receptor cDNAs and the wild type cDNA were transiently transfected; expressed in transfected cells; host or cells: HEK-293 cells, transient
T1 sequence (Q5D0K2 1-428 G258S/V400A/L413V): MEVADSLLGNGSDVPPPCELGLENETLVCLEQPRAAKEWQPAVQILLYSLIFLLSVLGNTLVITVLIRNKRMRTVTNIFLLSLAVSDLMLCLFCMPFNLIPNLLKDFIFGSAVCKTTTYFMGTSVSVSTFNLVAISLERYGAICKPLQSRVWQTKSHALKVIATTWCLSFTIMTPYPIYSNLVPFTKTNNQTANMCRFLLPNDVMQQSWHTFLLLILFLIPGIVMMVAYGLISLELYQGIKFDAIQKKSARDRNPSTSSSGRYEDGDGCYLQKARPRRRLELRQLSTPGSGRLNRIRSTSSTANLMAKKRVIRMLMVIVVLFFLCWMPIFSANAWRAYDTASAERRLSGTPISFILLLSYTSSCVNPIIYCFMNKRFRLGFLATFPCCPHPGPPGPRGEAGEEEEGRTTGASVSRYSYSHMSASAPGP
Briefly: competition binding at variant #1 canine CCK1 receptor transiently transfected in HEK cells. The following applies: Canine CCK1 variant #1, transiently transfected in HEK cells, n = 3, ± s.e. mean; for Ki: read-out: pKI (affinity value, -log equilibrium dissociation constant) (converted).

The target in the next experiment is T2, canine CCK1 receptor (Canis lupus familiaris, UniProt Q5D0K2).
T2 construct: expressed in transfected cells
T2 sequence (Q5D0K2 1-428): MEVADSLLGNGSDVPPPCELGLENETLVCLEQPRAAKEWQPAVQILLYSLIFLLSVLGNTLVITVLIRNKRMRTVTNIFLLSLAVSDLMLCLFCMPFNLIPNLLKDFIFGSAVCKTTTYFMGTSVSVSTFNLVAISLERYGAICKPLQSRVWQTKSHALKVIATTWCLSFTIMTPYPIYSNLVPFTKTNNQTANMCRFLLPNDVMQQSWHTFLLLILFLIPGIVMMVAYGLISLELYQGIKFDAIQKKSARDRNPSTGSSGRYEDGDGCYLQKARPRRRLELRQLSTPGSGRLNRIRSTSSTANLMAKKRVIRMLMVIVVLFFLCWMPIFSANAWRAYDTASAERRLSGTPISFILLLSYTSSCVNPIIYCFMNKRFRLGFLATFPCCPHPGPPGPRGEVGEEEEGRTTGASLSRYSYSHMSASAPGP
Briefly: competition binding of [125I]-BH-CCK-8S at cloned canine CCK1 receptor stably expressed in CHO-K cells. The following applies: for nH (Hill slope) / Ki: Canine CCK1, CHO-K cells, [125I]-BH-CCK-8S radiolabel, n = 3, ± s.e. mean; for Ki: read-out: pKI (affinity value, -log equilibrium dissociation constant) (converted).

For another experiment, the target named is T3, human CCK1 receptor (Homo sapiens, UniProt P32238).
T3 construct: expressed in transfected cells
T3 sequence (P32238 1-428): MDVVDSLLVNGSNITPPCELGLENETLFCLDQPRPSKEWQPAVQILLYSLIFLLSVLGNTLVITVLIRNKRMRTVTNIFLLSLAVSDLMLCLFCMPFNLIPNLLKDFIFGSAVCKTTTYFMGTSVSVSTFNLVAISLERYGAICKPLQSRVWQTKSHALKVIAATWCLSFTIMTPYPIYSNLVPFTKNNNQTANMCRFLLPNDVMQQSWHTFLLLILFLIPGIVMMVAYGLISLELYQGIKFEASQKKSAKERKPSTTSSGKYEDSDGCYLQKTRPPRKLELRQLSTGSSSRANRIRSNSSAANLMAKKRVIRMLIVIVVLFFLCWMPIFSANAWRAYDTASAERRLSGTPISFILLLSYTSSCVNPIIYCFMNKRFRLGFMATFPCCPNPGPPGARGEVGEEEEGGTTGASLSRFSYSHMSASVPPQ
Briefly: competition binding of [125I]-BH-CCK-8S at cloned human CCK1 receptor. The following applies: Human CCK1, [125I]-BH-CCK-8S radiolabel, n = 3, ± s.e. mean; for Ki: read-out: pKI (affinity value, -log equilibrium dissociation constant) (converted).

Experiment [1] relates to putative CCK1 receptor binding sites labeled with [3H]-L-364,718. The following applies: canine intestine (Mao et al., 1995); cited from earlier work.
In the next experiment the target is T4, canine CCK2 receptor (Canis lupus familiaris, UniProt P30552).
T4 sequence (P30552 1-453): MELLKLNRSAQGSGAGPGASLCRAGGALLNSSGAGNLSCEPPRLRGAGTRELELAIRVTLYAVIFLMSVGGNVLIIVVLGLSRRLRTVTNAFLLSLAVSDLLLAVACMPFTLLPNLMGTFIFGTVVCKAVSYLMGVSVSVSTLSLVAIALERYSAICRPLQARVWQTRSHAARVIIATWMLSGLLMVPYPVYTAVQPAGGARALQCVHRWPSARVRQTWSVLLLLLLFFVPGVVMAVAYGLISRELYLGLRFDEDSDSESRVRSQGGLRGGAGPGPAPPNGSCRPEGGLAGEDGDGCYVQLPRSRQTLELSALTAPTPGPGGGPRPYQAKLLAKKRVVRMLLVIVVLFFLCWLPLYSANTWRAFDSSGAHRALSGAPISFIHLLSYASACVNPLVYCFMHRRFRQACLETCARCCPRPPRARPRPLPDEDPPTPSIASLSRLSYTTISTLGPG
Description: competition binding of [125I]-BH-CCK-8S at canine CCK2 receptor.

The next experiment deals with T5, Canine CCK1: Wild-type (Canis lupus familiaris, UniProt Q5D0K2).
T5 construct: The ORF encodes a 428 amino-acid protein; expressed in transfected cells; host or cells: HEK-293 cells, transient
T5 sequence (Q5D0K2 1-428): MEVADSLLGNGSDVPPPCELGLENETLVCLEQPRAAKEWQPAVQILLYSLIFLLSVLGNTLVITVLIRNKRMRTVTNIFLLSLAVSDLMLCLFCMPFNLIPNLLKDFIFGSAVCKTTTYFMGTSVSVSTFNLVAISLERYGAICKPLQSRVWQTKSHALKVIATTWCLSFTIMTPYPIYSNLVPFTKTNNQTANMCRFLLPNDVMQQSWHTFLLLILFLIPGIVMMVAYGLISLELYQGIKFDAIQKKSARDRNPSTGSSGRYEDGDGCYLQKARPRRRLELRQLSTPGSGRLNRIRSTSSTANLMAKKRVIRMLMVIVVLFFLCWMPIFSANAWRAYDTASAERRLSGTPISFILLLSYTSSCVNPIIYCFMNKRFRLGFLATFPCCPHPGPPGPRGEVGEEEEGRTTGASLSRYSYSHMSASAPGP
Briefly: competition binding at wild-type canine CCK1 receptor transiently transfected in HEK cells. The following applies: n = 3, ± s.e. mean; for Ki: read-out: pKI (affinity value, -log equilibrium dissociation constant) (converted).

For experiment [2], the target named is T6, wild-type canine CCK1 receptor (canine, UniProt Q5D0K2 1-428).
T6 construct: Full-length receptor, stably expressed in CHO-K cells or transiently in HEK-293 cells; It was assayed as membrane preparations of those cells; also called canine cholecystokinin 1 receptor; control wild-type canine CCK1R protein
T6 sequence: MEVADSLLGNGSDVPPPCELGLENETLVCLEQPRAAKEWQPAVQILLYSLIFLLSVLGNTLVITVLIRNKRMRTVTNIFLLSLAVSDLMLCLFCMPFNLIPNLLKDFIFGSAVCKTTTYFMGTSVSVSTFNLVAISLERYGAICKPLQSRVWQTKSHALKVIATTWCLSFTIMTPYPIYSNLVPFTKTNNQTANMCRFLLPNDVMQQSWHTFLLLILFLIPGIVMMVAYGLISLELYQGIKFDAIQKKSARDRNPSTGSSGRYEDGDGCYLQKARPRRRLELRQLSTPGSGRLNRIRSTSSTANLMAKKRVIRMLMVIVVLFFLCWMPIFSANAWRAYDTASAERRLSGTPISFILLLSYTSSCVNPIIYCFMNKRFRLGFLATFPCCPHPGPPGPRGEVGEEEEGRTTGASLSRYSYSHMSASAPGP
Description: saturation radioligand binding, membranes of stably transfected CHO cells, first phase of the isotherm.
Description: The homogenate was centrifuged (800×g for 10 min) and the pellet discarded. The supernatant was re-centrifuged (39,800×g for 25 min) and the final pellet re-suspended in 20 ml assay buffer (cell concentration: 25×10⁵ cells ml⁻¹). […] All binding assays were conducted in 96 well Multiscreen GF/B filter plates (Millipore, Billerica, Mass., USA) that were pre-soaked in assay buffer for 1 h. For competition studies, cell membranes (45 μl) were incubated with 60 μM [¹²⁵I]-BH-CCK-8S (50 μl) in the presence of competing ligand (15 μl) for 90 min (total volume of 150 μl). […] The bound radioactivity was separated by filtration using a Multiscreen Resist manifold (Millipore, Billericay, Mass., USA). The filters were washed three times with ice-cold PBS (pH 7.5) and radioactivity retained on the filters was measured by liquid scintillation counting using a TopCount (Packard BioScience, Boston, Mass.). All experiments were performed in triplicate.

The target of experiment [3] is T7, canine CCK1 receptor variant #2 (canine, UniProt Q5D0K2 1-428).
T7 construct: Six amino-acid differences from wild type; Transiently expressed in HEK-293 cells and assayed as membrane preparations; also called canine CCK1 variant #2 receptor
T7 chain: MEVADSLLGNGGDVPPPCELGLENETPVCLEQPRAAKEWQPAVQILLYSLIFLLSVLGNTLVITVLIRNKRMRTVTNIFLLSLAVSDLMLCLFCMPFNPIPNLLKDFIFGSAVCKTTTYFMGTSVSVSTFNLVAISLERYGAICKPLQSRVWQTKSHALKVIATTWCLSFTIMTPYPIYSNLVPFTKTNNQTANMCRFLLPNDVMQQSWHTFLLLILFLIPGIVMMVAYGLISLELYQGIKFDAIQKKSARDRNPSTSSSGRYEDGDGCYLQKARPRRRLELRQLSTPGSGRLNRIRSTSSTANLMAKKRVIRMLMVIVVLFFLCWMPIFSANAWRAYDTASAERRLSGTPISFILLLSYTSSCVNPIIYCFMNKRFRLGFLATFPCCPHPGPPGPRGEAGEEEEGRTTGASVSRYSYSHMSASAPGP
Briefly: radioligand binding (20 pM [125I]-BH-CCK-8S) against increasing membrane protein, transiently transfected HEK cells.

The mark [4] stands for this setting: Canine CCK2, [125I]-BH-CCK-8S radiolabel, n = 3, ± s.e. mean.

Description for human CCK1 receptor: For radioligand binding studies, the cells were harvested by cell scraping and resulting pellets immediately frozen at −80° C. (approximately 50×10^6 cells/pellet). Frozen cell pellets were defrosted on ice in 15 ml of assay buffer (composition; 10 mM HEPES, 130 mM NaCl, 4.7 mM KCl, 5 mM MgCl2, bacitracin 0.089; pH 7.2 at 21±3° C.) and then homogenized (setting 10, 7×3 s; Polytron; Brinkmann Instruments). The homogenate was centrifuged (800×g for 10 min) and the pellet discarded. The supernatant was re-centrifuged (39,800×g for 25 min) and the final pellet re-suspended in 20 ml assay buffer (cell concentration: 25×10^5 cells ml^−1). Protein concentration was determined using BCA Protein Assay Kit (Pierce, Rockford, Ill.). All binding assays were conducted in 96 well Multiscreen GF/B filter plates (Millipore, Billerica, Mass., USA) that were pre-soaked in assay buffer for 1 h. […] Nonspecific binding was determined by inclusion of 10 μM 2-NAP (a CCK1 receptor selective antagonist; see, e.g., Hull et al., 1993, Br. J. Pharmacol., 108:734-740). All radioligand binding studies were conducted in the presence of the CCK2 receptor-selective antagonist PD-134,308 at a concentration estimated to occupy 99% of human CCK2 receptors (0.3 μM; se, e.g., Hughes et al., 1990, Proc. Natl. Acad. Sci. U.S.A., 87(17):6728-6732; Hunter et al., 1993, Mol. Pharmacol., 43:595-602). The bound radioactivity was separated by filtration using a Multiscreen Resist manifold (Millipore, Billericay, Mass., USA). The filters were washed three times with ice-cold PBS (pH 7.5) and radioactivity retained on the filters was measured by liquid scintillation counting using a TopCount (Packard BioScience, Boston, Mass.). All experiments were performed in triplicate.
Equilibrium dissociation constant (K1) values were assumed to be equal to the IC50 values obtained from the logistic curve fit as the radiolabel concentrations used in the assays were always below the KD of the radiolabel. The equilibrium dissociation constants (K1) values were calculated from the midpoint locations (IC50) following Cheng & Prusoff, eqn.
Competition-inhibition studies were conducted on the canine and human CCK1 receptor using a cell-protein concentration within the linear range of the cell number curve (80 μg/ml, cell number curves not shown).

Consider `Cc1cccc(NC(=O)N[C@@H]2N=C(c3ccccc3)c3ccccc3N(CC(=O)c3ccccc3C)C2=O)c1` [YM022, 1-[(R)-2,3-dihydro-1-(2-methylphenacyl)-2-oxo-5-phenyl-1H-1,4-benzodiazepin-3-yl]-3-(3-methylphenyl)urea], for which the “nH (Hill slope)” value is listed as 1.39 ± 0.39 on Canine CCK1: Variant #1; 1.09 ± 0.13 on canine CCK1 receptor; 1.15 ± 0.14 on human CCK1 receptor; 0.92 ± 0.10 on canine CCK2 receptor (setting [4]); 1.17 ± 0.30 on Canine CCK1: Wild-type. Besides, the Ki at Canine CCK1: Variant #1 is 8.32 nM; on canine CCK1 receptor, 5.25 nM; at human CCK1 receptor, 7.76 nM; at canine CCK2 receptor it was 0.195 nM; at Canine CCK1: Wild-type it was 11 nM. Further, the “inhibitory effect at [3H]-L-364,718 binding sites” value in experiment [1] is “no inhibitory effect”. In addition, at canine CCK2 receptor (canine CCK2 over canine CCK1), the “fold higher affinity at the canine CCK2 receptor compared to the canine CCK1 receptor” value came to 27 fold.
Regarding `CCCCCN(CCCOC)C(=O)[C@@H](CCC(=O)O)NC(=O)c1ccc(Cl)c(Cl)c1` [dexloxiglumide, (R)-4-(3,4-Dichloro-benzoylamino)-4-[(3-methoxy-propyl)-pentyl-carbamoyl]-butyric acid], the “nH (Hill slope)” value at Canine CCK1: Variant #1 stood at 0.90 ± 0.17; at canine CCK1 receptor, 0.83 ± 0.13; on human CCK1 receptor it was 0.91 ± 0.18; on canine CCK2 receptor (setting [4]), 0.71 ± 0.09; on Canine CCK1: Wild-type, 1.33 ± 0.43. Also, the Ki was 16.6 nM at Canine CCK1: Variant #1; 29.5 nM at canine CCK1 receptor; 29.5 nM at human CCK1 receptor; 2750 nM on canine CCK2 receptor (Canine CCK2, [125I]-BH-CCK-8S radiolabel, n = 3, ± s.e. mean, read-out: pKI (affinity value, -log equilibrium dissociation constant) (converted)); 16.6 nM on Canine CCK1: Wild-type. Also, the “fold higher affinity at the canine CCK1 receptor (compared to canine CCK2)” value at canine CCK1 receptor (canine CCK1 over canine CCK2) is on record as 93 fold.

B1: [^125I]-BH-CCK-8S (peptide, UniProt P06307 96-103, looked up)
peptide: {BH(125I)}-D[sY]MGWMDF
modifications: not fully specified (C-terminus); ends and bridges not checked; also: sulfated, site not given here, 125I Bolton-Hunter conjugate, site not given here
notes: Radioligand; also called Bolton-Hunter conjugated sulfated CCK-8
Consider B1, for which the pKD in experiment [2] was 10.5 pKD (negative log of KD). The binding result in experiment [3] is reported as “no binding (tested: 2500 µg/ml protein)”.
